Where two headings read alike, the source gives them in different places.
What was measured:
[1] = Pharmacokinetics of A-002; details: in vivo
stable CVD population = details: cited from earlier work
Human ACS Subjects = assay: Major adverse cardiac events (MACEs) in human ACS subjects; assay type: in vivo
Method: (§1) 625 adult (18 years of age or older) unstable human subjects who had recently experienced an index ACS event (UA, NSTEMI, or STEMI) were randomized to receive placebo or A-002 at 500 mg once daily via oral administration in a double-blinded manner. A-002 was delivered in the form of two 250 mg tablets. In addition, all subjects received atorvastatin at 80 mg once daily via oral administration of a single tablet.
(§2) Subjects were randomized within 96 hours of hospital admission for an index ACS event, or within 96 hours of index ACS event diagnosis if already hospitalized. Prior to randomization, subjects were screened for pertinent medical history, and baseline levels of LDL and hs-CRP were measured. Baseline sPLA2 levels were also measured in a random subset of subjects. Percutaneous revascularization, if required or planned for a particular subject, was performed prior to randomization.
(§3) Subjects were excluded if they were receiving statin therapy at maximum recommended or tolerated dosage (i.e., 40-80 mg QD for atorvastatin, fluvastatin, lovastatin, pravastatin, or simvastatin, or 20-40 mg QD rosuvastatin) at the time of the index ACS event. During the trial, subjects were prevented from using any lipid-lowering therapy other than 80 mg atorvastatin and/or A-002.
(§4) For purposes of this study, MACEs included all-cause mortality, non-fatal MI, documented UA requiring urgent hospitalization, revascularization occurring 60 days or more after the initial index ACS event, and non-fatal stroke. Subjects were evaluated at 2, 4, 8, 12, 16, 20, and 24 weeks after randomization and monthly thereafter until study completion. Each evaluation included measurement of serum LDL levels and recordation of any MACEs or less severe adverse events occurring since the previous evaluation. In addition, certain evaluation periods included measurement of one or more of hs-CRP, sPLA2, IL-6, and/or other biomarker levels, vital signs, weight, and/or waist circumference. […] This final evaluation included at least a complete physical examination, a 12-lead ECG reading, measurement of LDL, hs-CRP, sPLA2, and IL-6 levels, and recordation of any MACEs during the study period.

serum IL-6 = assay: Serum IL-6 levels in human ACS subjects; assay type: in vivo
Method: as §1, §2, §3, §4

LDL and CRP levels = assay: Reaching composite target LDL and hs-CRP levels in human ACS subjects; assay type: in vivo; details: ITT population
Method: as §1, §2, §3, §4

serum hs-CRP = assay: Serum hs-CRP levels in human ACS subjects; assay type: in vivo
Method: as §1, §2, §3, §4

[2] = test system: subjects that had recently experienced an ACS event; details: 80 mg atorvastatin; subjects that had recently experienced an ACS event (Schwartz 2001); cited from earlier work
serum LDL = details: for % of subjects with [LDL] < 50 mg/dl / % of subjects with [LDL] < 70 mg/dl / % of subjects with [LDL] < 100 mg/dl / % change in mean [LDL] from baseline / Change in mean [LDL] from baseline: ITT population
serum sPLA2 = assay: Serum sPLA2 levels in human ACS subjects; assay type: in vivo; details: ITT population
Method: as §1, §2, §3, §4

[3] = ITT population, cumulative at 16 weeks

## CCc1c(C(=O)C(N)=O)c2c(OCC(=O)OC)cccc2n1Cc1ccccc1 [A-002, [[3-(2-Amino-1,2-dioxoethyl)-2-ethyl-1-(phenylmethyl)-1H-indol-4-yl]oxy]acetic acid methyl ester]
[1]
  absorption and conversion to active molecule: rapidly absorbed and hydrolyzed to the active A-001 molecule
Stable CVD population; once- or twice-daily administration, stable CVD population, diabetic and high baseline LDL-C subpopulations
  effect on cholesterol levels: decreases total cholesterol, LDL-C, total LDL-C particle, and small LDL-C particle levels
Stable CVD population; stable populations
  effect on inflammatory markers: decreases levels of various inflammatory markers such as hs-CRP and sPLA2

## CC(C)c1c(C(=O)Nc2ccccc2)c(-c2ccccc2)c(-c2ccc(F)cc2)n1CC[C@@H](O)C[C@@H](O)CC(=O)O [Placebo (atorvastatin only), atorvastatin]
Human ACS Subjects; ITT population, 0-30 days
  Death (# of events): 4
  MI (# of events): 2
  Stroke (# of events): 0
  Total MACE (# of events): 12
  UA (# of events): 6
Human ACS Subjects; ITT population, 0-60 days
  Death (# of events), cumulative: 4
  MI (# of events), cumulative: 3
  Stroke (# of events), cumulative: 0
  Total MACE (# of events), cumulative: 14
  UA (# of events), cumulative: 7
Human ACS Subjects; ITT population, 0-90 days
  Death (# of events), cumulative: 5
  MI (# of events), cumulative: 3
  Stroke (# of events), cumulative: 1
  Total MACE (# of events), cumulative: 17
  UA (# of events), cumulative: 8
Human ACS Subjects; ITT population, 0-112 days
  Death (# of events), cumulative: 5
  MI (# of events), cumulative: 4
  Stroke (# of events), cumulative: 1
  Total MACE (# of events), cumulative: 19
  UA (# of events), cumulative: 9
Human ACS Subjects; ITT population, 30-60 days
  Death (# of events): 0
  MI (# of events): 1
  Stroke (# of events): 0
  Total MACE (# of events): 2
  UA (# of events): 1
Human ACS Subjects; ITT population, 60-90 days
  Death (# of events): 1
  MI (# of events): 0
  Stroke (# of events): 1
  Total MACE (# of events): 3
  UA (# of events): 1
Human ACS Subjects; ITT population, 90-112 days
  Death (# of events): 0
  MI (# of events): 1
  Stroke (# of events): 0
  Total MACE (# of events): 2
  UA (# of events): 1
Human ACS Subjects; [3]
  Death (% of subjects): 1.6%
  Death (number): 5
  MI (% of subjects): 1.3%
  MI (number): 4
  Revascularization ≧ 60 days (number): 0
  Stroke (% of subjects): 0.3%
  Stroke (number): 1
  Total MACEs (% of subjects): 6.1%
  Total MACEs (number): 19
  UA requiring hospitalization (% of subjects): 2.9%
  UA requiring hospitalization (number): 9
Human ACS Subjects; days 0 to 30
  % of subjects who experienced a MACE: 3.9%
Human ACS Subjects; days 0 to 60
  % of subjects who experienced a MACE: 4.5%
Human ACS Subjects; days 0 to 90
  % of subjects who experienced a MACE: 5.5%
Serum IL-6; ITT population, Week 2
  % change in median [IL-6] from baseline: −5.2%
Serum IL-6; ITT population, Week 4
  % change in median [IL-6] from baseline: −33.7%
Serum IL-6; ITT population, Week 8
  % change in median [IL-6] from baseline: −38.3%
Serum IL-6; diabetes subpopulation, Week 2
  % change in median [IL-6] from baseline: +3.5%
Serum IL-6; diabetes subpopulation, Week 4
  % change in median [IL-6] from baseline: −23.9%
Serum IL-6; diabetes subpopulation, Week 8
  % change in median [IL-6] from baseline: −40.4%
LDL and CRP levels; Baseline
  % of subjects with mean [LDL] < 70 mg/dl and [hs-CRP] <1 mg/L: 0.4%
  % of subjects with mean [LDL] < 70 mg/dl and [hs-CRP] < 3 mg/L: 1.4%
LDL and CRP levels; Week 2
  % of subjects with mean [LDL] < 70 mg/dl and [hs-CRP] <1 mg/L: 5.6%
  % of subjects with mean [LDL] < 70 mg/dl and [hs-CRP] < 3 mg/L: 16.4%
LDL and CRP levels; Week 4
  % of subjects with mean [LDL] < 70 mg/dl and [hs-CRP] <1 mg/L: 12.8%
  % of subjects with mean [LDL] < 70 mg/dl and [hs-CRP] < 3 mg/L: 30.5%
LDL and CRP levels; Week 8
  % of subjects with mean [LDL] < 70 mg/dl and [hs-CRP] <1 mg/L: 17.5%
  % of subjects with mean [LDL] < 70 mg/dl and [hs-CRP] < 3 mg/L: 36.8%
LDL and CRP levels; Week 16
  % of subjects with mean [LDL] < 70 mg/dl and [hs-CRP] <1 mg/L: 15.6%
  % of subjects with mean [LDL] < 70 mg/dl and [hs-CRP] < 3 mg/L: 32.9%
LDL and CRP levels; Week 24
  % of subjects with mean [LDL] < 70 mg/dl and [hs-CRP] <1 mg/L: 15.9%
  % of subjects with mean [LDL] < 70 mg/dl and [hs-CRP] < 3 mg/L: 34.1%
Serum hs-CRP; ITT population, Week 2
  % change in median [hs-CRP] from baseline: −20.0%
Serum hs-CRP; ITT population, Week 4
  % change in median [hs-CRP] from baseline: −63.5%
Serum hs-CRP; ITT population, Week 8
  % change in median [hs-CRP] from baseline: −71.0%
Serum hs-CRP; ITT population, Week 16
  % change in median [hs-CRP] from baseline: −71.8%
Serum hs-CRP; ITT population, Week 24
  % change in log mean [hs-CRP] from baseline: −77.0%
Serum hs-CRP; diabetes subpopulation, Week 2
  % change in median [hs-CRP] from baseline: −11.0%
Serum hs-CRP; diabetes subpopulation, Week 4
  % change in median [hs-CRP] from baseline: −51.1%
Serum hs-CRP; diabetes subpopulation, Week 8
  % change in median [hs-CRP] from baseline: −67.6%
Serum hs-CRP; diabetes subpopulation, Week 16
  % change in median [hs-CRP] from baseline: −72.4%
Serum hs-CRP; diabetes subpopulation, Week 24
  % change in median [hs-CRP] from baseline: −76.1%
[2]
  absolute reduction in death, non-fatal MI, cardiac arrest with resuscitation, or worsening symptomatic myocardial ischemia: 2.6%
  relative reduction in death, non-fatal MI, cardiac arrest with resuscitation, or worsening symptomatic myocardial ischemia: 16%
Serum LDL; Baseline
  % of subjects with [LDL] < 50 mg/dl: 1.1%
  % of subjects with [LDL] < 70 mg/dl: 5.2%
  % of subjects with [LDL] < 100 mg/dl: 24.1%
Serum LDL; Week 2
  % change in mean [LDL] from baseline: −41.7%
  % of subjects with [LDL] < 50 mg/dl: 21.9%
  % of subjects with [LDL] < 70 mg/dl: 54.6%
  % of subjects with [LDL] < 100 mg/dl: 89.1%
  Change in mean [LDL] from baseline: -52.5 mg/dL
Serum LDL; Week 4
  % change in mean [LDL] from baseline: −42.3%
  % of subjects with [LDL] < 50 mg/dl: 25.0%
  % of subjects with [LDL] < 70 mg/dl: 54.8%
  % of subjects with [LDL] < 100 mg/dl: 91.2%
  Change in mean [LDL] from baseline: -55.5 mg/dL
Serum LDL; Week 8
  % change in mean [LDL] from baseline: −43.8%
  % of subjects with [LDL] < 50 mg/dl: 22.7%
  % of subjects with [LDL] < 70 mg/dl: 59.9%
  % of subjects with [LDL] < 100 mg/dl: 91.4%
  Change in mean [LDL] from baseline: -56.6 mg/dL
Serum LDL; Week 16
  % change in mean [LDL] from baseline: −36.5%
  % of subjects with [LDL] < 50 mg/dl: 16.8%
  % of subjects with [LDL] < 70 mg/dl: 48.3%
  % of subjects with [LDL] < 100 mg/dl: 82.4%
  Change in mean [LDL] from baseline: -48.1 mg/dL
Serum LDL; Week 24
  % change in mean [LDL] from baseline: −38.2%
  % of subjects with [LDL] < 50 mg/dl: 14.1%
  % of subjects with [LDL] < 70 mg/dl: 50.0%
  % of subjects with [LDL] < 100 mg/dl: 86.5%
  Change in mean [LDL] from baseline: -50.0 mg/dL
Serum LDL; final study visit
  percentage of subjects reaching target LDL levels of 50 mg/dl or less: 16.0%
  percentage of subjects reaching target LDL levels of 70 mg/dl or less: 42.8%
Serum sPLA2; Week 2
  % change in median [sPLA2] from baseline: +5.4%
Serum sPLA2; Week 4
  % change in median [sPLA2] from baseline: −7.0%
Serum sPLA2; Week 8
  % change in median [sPLA2] from baseline: −15.6%
Serum sPLA2; Week 16
  % change in median [sPLA2] from baseline: −12.1%
